In one data set the test system is HIV gp-120. The following applies: cited from earlier work.
Another data set has as its system human thioredoxin (Trx). Briefly: HD5OX reduction by thioredoxin in vitro, LC-MS. In kind it is biochemical. The following applies: 30 μM HD5OX, 15 μM human Trx, 500 nM rat liver TrxR, 1 mM NADPH, 2 mM EDTA, pH 7.0, room temperature, 1 h. The method, then: (§1) A mixture of 30 μM HD5OX, 15 μM human thioredoxin (Trx, Prospec PRO569), 500 nM rat liver thioredoxin reductase (TrxR, Sigma T9698), 1 mM NADPH (Sigma N5130), and 2 mM EDTA was incubated in 100 mM sodium phosphate buffer (pH 7.0) at room temperature for 1 h. The reaction was quenched by adding 6% trifluoroacetic acid (TFA). The solution was then centrifuged (10,000 g × 10 min) at 4 °C and analyzed with an Agilent 6410 liquid chromatography-mass spectrometry (LC-MS) instrument using a linear gradient of 5–45% acetonitrile that contained 0.1% TFA.

The subject of data set [1] is interaction between LPS and LBP (mouse LBP). Briefly: LPS-binding protein (LBP) block assay. It counts as biochemical. The note with it: for effect on the interaction between LPS and LBP: 50 μg/mL peptide, mouse LBP 60 ng/mL, biotinylated LPS 50 ng/mL. The method, then: The effects of peptides on the interaction between LPS and low concentrations of LBP were determined as previously described. Briefly, the plates of a LBP ELISA kit (Boster EK1274) were blocked by the incubation of 1% BSA prepared in 10 mM sodium phosphate buffer (pH 7.4) at 37 °C for 1 h, which were subsequently washed with 0.1% Tween-20. Aliquots of 100 μL of mouse LBP (Sigma SRP6034, 60 ng/mL) were added and incubated at 37 °C for 1.5 h. Peptides were prepared in sterile water, with concentrations of 12.5, 25, and 50 μg/mL, respectively. Biotinylated LPS (50 ng/mL) was added in the absence or presence of peptides (pre-incubated at 37 °C for 30 min). Polymyxin B (200 ng/mL) was used as a positive control. The binding of LPS to LBP was determined using a chromogenic reaction between HRP-conjugated streptavidin (Boster BA1088) and TMB (Sigma 860336). Data were processed by subtracting the absorbance in the absence of LPS. Statistical significance was determined by the Student−Newman−Keuls multiple comparisons test.
Figure 5. The efficiencies of peptides in blocking the interaction between LPS and LBP. A LBP ELISA plate was blocked by 1% BSA and subsequently washed with 0.1% Tween-20. Aliquots of 100 μL of the mouse LBP (60 ng/mL) was added and incubated at 37°C for 1.5 h. Peptides were prepared in sterile water, with concentrations of 12.5, 25, and 50 μg/mL, respectively. Biotinylated LPS (50 ng/mL) was then added in the absence or presence of peptides (pre-incubated at 37°C for 30 min). Data were processed by subtracting the absorbance in the absence of biotinylated LPS. Statistical significance was determined by the Student−Newman−Keuls multiple comparisons test. n.s, not significant; **, p < 0.01, relative to the value of the group solely treated with LPS.

The subject of another data set is CD4^+T cells. The following applies: cited from earlier work. The text has this:
(§2) Human defensins are also noted for their immunoregulatory properties. […] Additionally, some defensins are able to suppress the pro-inflammatory effect of bacterial lipopolysaccharide (LPS). For example, H ...

Data set [2] relates to intestinal epithelial cells. The note with it: cited from earlier work.
Excerpt: as §2

For data set [3], the system named is Escherichia coli (ATCC 25922). Briefly: virtual colony count assay, E. coli. The note with it: for LD50 (Lethal Dose that kills 50% of bacteria) / LD90 (Lethal Dose that kills 90% of bacteria): ATCC 25922 E. coli, 1 × 10^6 CFU/mL, 10 mM sodium phosphate buffer pH 7.4, 1% TSB, 37 °C, 1 h, duplicate, repeated three times. In kind it is cell-based. The method, then: Figure 3 Reduction attenuates the antibacterial activity of HD5OX against Gram-negative bacteria. […] Peptides were prepared in sterile water, with the final concentrations of 0.78, 1.56, 3.13, 6.25, 12.5, and 25 μg/mL. […] Zero survival points are not plotted.

Data set [4] deals with anthrax lethal factor (LF). The note with it: cited from earlier work.
The next data set relates to E. coli. Briefly: Antibacterial assay in the presence of LPS. In kind it is cell-based. The note with it: 4 μg/mL LPS, 12.5 μg/mL peptide. The method, then: (B) Heat release of the interaction between 1 mg/mL of the peptides and 10 μg/mL of LPS. Shown is the relationship between the enthalpy value (△H) and the weight ratio of peptides to LPS. […] The antibacterial efficiency is presented as the bacterial lethal rate, which is calculated by dividing the number of killed colonies by the number of colonies remaining after treatment with sterile water or 0.25 mM DTT. Statistical significance was determined by the Student’s t-test. n.s, not significant; **p < 0.01.

The test system of a further data set is bacteria. The note with it: among the α defensins; cited from earlier work. The text has this: Oxidized human defensin 5 (HD5OX), a 32-residue α defensin, is stored in the secretory granules of Paneth cells in the small intestine as a propeptide (E20-R94) and is processed by anionic and/or meso isoforms of trypsin during secretion or shortly thereafter at a cleavage site between R62 and A63[6]. […] We have previously prepared bioactive HD5OX using Pichia pastoris and design ... || HD5OX is an endogenous bactericidal agent.

The conditions of data set [5]: cited from earlier work. The text has this:
Upon examining the biochemical properties of synthetic IDRs, the structural flexibility was noted. For example, the bovine bactenecin linear derivative 1018 adopts various folds in different media, relative to the natural peptide, to adapt to different functions. […] It can be exp ...

Data set [6] is described as follows: Hydrophobicity of the Trx reduction product (LC-MS). It counts as physicochemical. The following applies: linear gradient of 5–45% acetonitrile with 0.1% TFA, vs HD5OX. The method, then:
as §1

The test system of data set [7] is Enterococcus faecalis (ATCC 29212). Briefly: virtual colony count assay, E. faecalis. The following applies: HD5OX vs HD5RED.
Data set [8] concerns E. coli ML35 (ATCC 43827) cells. Briefly: Zeta potential determination. It counts as cell-based. The method, then:
Samples were equilibrated at 25 °C for 2 min. Zeta potential was determined using the Zetasizer Nano ZS (Malvern Instruments, UK). A total of 6 measurements of 100 runs were carried out for each sample.

Data set [9] deals with E. coli ML35 inner membrane. Briefly: Inner membrane permeabilization (ONPG). In kind it is cell-based. The following applies: 6.25 and 12.5 μg/mL, 37 °C, 2 h, absorbance 405 nm, vs HD5OX. The method, then:
The production of 2-nitrophenol (ONP), a marker of inner membrane penetration, was determined by measuring the absorbance at 405 nm.

The text below walks through data of publication PMC4785407, “Reduction Impairs the Antibacterial Activity but Benefits the LPS Neutralization Ability of Human Enteric Defensin 5” (Scientific Reports, 2016).

“Also recorded” adds a separate entry of the source. Bridge positions count the residues as written; N and C are the ends. Peptide text beside a SMILES is read from it.

For `CC[C@H](C)[C@@H]1NC(=O)[C@H](CCC(=O)O)NC(=O)[C@@H]2CSSC[C@@H]3NC(=O)[C@H](Cc4ccc(O)cc4)NC(=O)[C@@H](NC(=O)[C@@H](NC(=O)[C@H](C)N)[C@@H](C)O)CSSC[C@@H](C(=O)N[C@@H](CCCNC(=N)N)C(=O)O)NC(=O)[C@H](CSSC[C@H](NC(=O)[C@H](CCCNC(=N)N)NC(=O)CNC(=O)[C@H]([C@@H](C)O)NC(=O)[C@H](CCCNC(=N)N)NC3=O)C(=O)N[C@@H](C)C(=O)N[C@@H]([C@@H](C)O)C(=O)N[C@@H](CCCNC(=N)N)C(=O)N[C@@H](CCC(=O)O)C(=O)N[C@@H](CO)C(=O)N[C@@H](CC(C)C)C(=O)N[C@@H](CO)C(=O)NCC(=O)N[C@@H](C(C)C)C(=O)N2)NC(=O)[C@H](CC(C)C)NC(=O)[C@H](CCCNC(=N)N)NC(=O)[C@H](Cc2ccc(O)cc2)NC(=O)[C@H](CC(C)C)NC(=O)[C@H](CCCNC(=N)N)NC(=O)CNC(=O)[C@H](CO)NC1=O` [HD5OX, Oxidized human defensin 5] (H-ATCYCRTGRCATRESLSGVCEISGRLYRLCCR-OH; disulfide 3-31, 5-20, 10-30; N-terminus and C-terminus assumed), the “binding and inhibition of HIV gp-120” value with HIV gp-120 is “efficiently bind and inhibit”. Besides, in the data set on human thioredoxin (Trx), the “reduction by Trx” value was “Trx catalyzed the reduction of HD5OX in vitro”. Further, in data set [1], the “effect on the interaction between LPS and LBP” value was “less effect on the interaction between LPS and LBP”. For the same compound, the IL-2 production entry in the data set on CD4^+T cells was “can induce the production of IL-8 and IL-2”. The IL-8 production result in data set [2] is listed as “can induce the production of IL-8”. In [3], the “LD50 (Lethal Dose that kills 50% of bacteria)” value was 3.2 ± 0.7 µg/mL and the “LD90 (Lethal Dose that kills 90% of bacteria)” value was 7.6 ± 1.1 µg/mL. In data set [3] (virtual colony count, 0.78-25 μg/mL, HD5OX vs HD5RED), the “antibacterial action against E. coli, relative” value is “more potent action against these bacteria than HD5RED”. The “binding and inhibition of anthrax lethal factor” value in data set [4] was “efficiently bind and inhibit anthrax lethal factor”. In addition, in the data set with E. coli, the “antibacterial efficiency in presence of LPS” value is “virtually unaffected”. Besides, the antibacterial activity result with bacteria is on record as “widest spectrum of antibacterial activity among the α defensins”. Further, in data set [5], the LPS binding result is “can bind LPS”.
Take `CC[C@H](C)[C@H](NC(=O)[C@H](CCC(=O)O)NC(=O)[C@H](CS)NC(=O)[C@@H](NC(=O)CNC(=O)[C@H](CO)NC(=O)[C@H](CC(C)C)NC(=O)[C@H](CO)NC(=O)[C@H](CCC(=O)O)NC(=O)[C@H](CCCNC(=N)N)NC(=O)[C@@H](NC(=O)[C@H](C)NC(=O)[C@H](CS)NC(=O)[C@H](CCCNC(=N)N)NC(=O)CNC(=O)[C@@H](NC(=O)[C@H](CCCNC(=N)N)NC(=O)[C@H](CS)NC(=O)[C@H](Cc1ccc(O)cc1)NC(=O)[C@H](CS)NC(=O)[C@@H](NC(=O)[C@H](C)N)[C@@H](C)O)[C@@H](C)O)[C@@H](C)O)C(C)C)C(=O)N[C@@H](CO)C(=O)NCC(=O)N[C@@H](CCCNC(=N)N)C(=O)N[C@@H](CC(C)C)C(=O)N[C@@H](Cc1ccc(O)cc1)C(=O)N[C@@H](CCCNC(=N)N)C(=O)N[C@@H](CC(C)C)C(=O)N[C@@H](CS)C(=O)N[C@@H](CS)C(=O)N[C@@H](CCCNC(=N)N)C(=O)O` [HD5RED] (H-ATCYCRTGRCATRESLSGVCEISGRLYRLCCR-OH): the hydrophobicity of product entry in [6] is recorded as “increased hydrophobicity”. For the same compound, in data set [1], the “effect on the interaction between LPS and LBP” value is “significantly inhibited the LPS-LBP interaction”. Moreover, the “LBP-blocking, dose dependence” value in [1] (12.5, 25, and 50 μg/mL) is listed as “dose-dependent LBP-blocking”. Moreover, the “efficiency against Gram-positive E. faecalis, relative” value in data set [7] is given as “less than HD5OX”. Also, in data set [3], the “LD50 (Lethal Dose that kills 50% of bacteria)” value stood at 6.5 ± 0.8 µg/mL and the “LD90 (Lethal Dose that kills 90% of bacteria)” value was 12.9 ± 1.3 µg/mL. The “fold of concentration needed to inactivate 90% relative to HD5OX” value in data set [3] (E. coli ATCC 25922, higher than HD5OX) was 1.7 -fold. Also, in [8] (12.5 and 50 μg/mL, peptide vs HD5OX), the “zeta potential of cells, compared with HD5OX” value is recorded as “significantly less than that of cells treated with HD5OX; also recorded: less efficient in altering the bacterial surface charge than HD5OX”. In addition, the “zeta potential of cells” value in data set [8] (E. coli ML35 cells, 10 mM sodium phosphate buffer pH 7.4, 1% TSB, 25 °C) is listed as “approximately −37 mV”. Moreover, in the data set with E. coli, the “antibacterial efficiency in presence of LPS” value is “significantly impaired”. In addition, the inner membrane disintegration entry in data set [9] was “attenuated potency for disintegrating the bacterial inner membrane”.
